Results published in PMC6778861, “Radiosynthesis and Preclinical Evaluation of ^11C-VA426, a Cyclooxygenase-2 Selective Ligand” (Contrast Media & Molecular Imaging, 2019).
Values belong to the compound of their own block, whether it stands above or below them.

Columns and labels:
[1] = Ex vivo biodistribution kinetic profile in healthy mice; set-up: species or system CD-1 mice; details: i.v.
Procedure: Male CD-1 mice were injected through the tail vein with 5.3 ± 1.4 MBq of ^11C-VA426 and sacrificed after 10, 30, and 60 minutes (n = 3 per time point) under general anaesthesia with a mixture of 4% isoflurane in air. Blood was collected by retro-orbital sampling immediately before sacrifice. Plasma was separated by centrifugation, and 100 μL of blood and plasma were counted in a γ-counter (LKB Compugamma CS 1282). Different peripheral organs (heart, lung, liver, intestine, stomach, spleen, kidney, testis, and muscle) and brain regions (cortex, striatum, hippocampus, thalamus, hypothalamus, pons, substantia nigra, and cerebellum) were immediately sampled, rinsed with cold saline, and placed in preweighed tubes for counting. Radioactivity concentration was calculated as %ID/g.

[2] = Ex vivo biodistribution kinetic profile in healthy rats; set-up: species or system Sprague Dawley rats
Procedure: Nine SD rats were injected through the tail vein with 9.25 ± 2.5 MBq of ^11C-VA426 and euthanized under general anaesthesia, with a mixture of 4% isoflurane in air, at different time points (10, 30, and 60 minutes) from injection (n = 3 per time). Blood was collected by retro-orbital sampling immediately before the sacrifice. Plasma was separated by centrifugation, and 100 μL of blood and plasma were counted in a γ-counter (LKB Compugamma CS 1282). Peripheral organs (heart, lung, liver, intestine, kidney, testis, and muscle) and brain regions (frontal, right and left cortex, right and left striatum, hippocampus, thalamus, hypothalamus, pons, and cerebellum) were immediately removed and rinsed in cold saline solution. Each sample was then placed in a test tube and weighed, and the radioactivity was measured using a γ-counter (LKB Compugamma CS 1282). An additional aliquot (0.1 mL) of radioactive solution was diluted to 1 : 10, 1 : 100, and 1 : 1000 and used to calculate the standard curve. Radioactivity concentration was calculated as the percentage of injected dose per gram of tissue (%ID/g).

[3] = target: T1, COX-2 (Mus musculus, UniProt Q05769); experiment: Specificity evaluation in peripheral inflammation (i.p. LPS) mouse model; type: in vivo; details: LPS-treated mice, celecoxib 10 mg/kg i.v., 10 minutes p.i.
T1 construct: from tissue; host or cells: organs of living mice (PET in healthy CD-1 mice)
T1 sequence (Q05769 18-604): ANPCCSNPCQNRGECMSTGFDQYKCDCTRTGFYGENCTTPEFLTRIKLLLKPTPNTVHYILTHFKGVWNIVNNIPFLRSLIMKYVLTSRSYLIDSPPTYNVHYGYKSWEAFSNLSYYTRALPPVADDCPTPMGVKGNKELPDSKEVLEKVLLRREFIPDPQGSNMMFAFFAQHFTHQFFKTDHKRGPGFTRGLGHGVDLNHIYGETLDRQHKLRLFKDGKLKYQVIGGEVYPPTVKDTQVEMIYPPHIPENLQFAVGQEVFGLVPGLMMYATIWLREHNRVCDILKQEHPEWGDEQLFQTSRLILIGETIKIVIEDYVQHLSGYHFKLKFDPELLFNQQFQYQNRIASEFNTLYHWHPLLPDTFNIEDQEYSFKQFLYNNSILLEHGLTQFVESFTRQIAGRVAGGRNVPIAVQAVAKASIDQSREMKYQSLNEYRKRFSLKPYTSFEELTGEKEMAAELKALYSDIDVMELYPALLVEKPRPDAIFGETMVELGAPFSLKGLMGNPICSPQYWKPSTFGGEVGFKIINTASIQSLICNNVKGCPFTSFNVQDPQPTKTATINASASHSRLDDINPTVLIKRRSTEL
Procedure: Specificity evaluation studies of ^11C-VA426 were performed on a murine model of peripheral inflammation, after COX-2 specific inhibitor administration. Six hours before the study, six mice received intraperitoneal injection of lipopolysaccharide (10 mg/Kg), in order to promote peripheral inflammation response. Three of the LPS-treated mice were injected i.v. with 10 mg/kg of celecoxib, five minutes before the ^11C-VA426 injection, to carry out a competition assay for the COX-2 binding sites. All mice were sacrificed at the time of maximum uptake (10 minutes p.i.), previously assessed in healthy mice, after 3.9 ± 1.1 MBq injection of the radiotracer. Peripheral samples were dissected and counted, as well as for biodistribution studies. Radioactivity concentration in samples was calculated as %ID/g.

[4] = target: T2, COX-2 (Rattus norvegicus, UniProt P35355); experiment: Specificity (celecoxib competition) study in healthy rats; type: in vivo, Sprague Dawley rats; details: 30 min p.i.
T2 construct: from tissue; host or cells: peripheral organs and brain regions of Sprague Dawley rats (in vivo / ex vivo biodistribution)
T2 sequence (P35355 18-604): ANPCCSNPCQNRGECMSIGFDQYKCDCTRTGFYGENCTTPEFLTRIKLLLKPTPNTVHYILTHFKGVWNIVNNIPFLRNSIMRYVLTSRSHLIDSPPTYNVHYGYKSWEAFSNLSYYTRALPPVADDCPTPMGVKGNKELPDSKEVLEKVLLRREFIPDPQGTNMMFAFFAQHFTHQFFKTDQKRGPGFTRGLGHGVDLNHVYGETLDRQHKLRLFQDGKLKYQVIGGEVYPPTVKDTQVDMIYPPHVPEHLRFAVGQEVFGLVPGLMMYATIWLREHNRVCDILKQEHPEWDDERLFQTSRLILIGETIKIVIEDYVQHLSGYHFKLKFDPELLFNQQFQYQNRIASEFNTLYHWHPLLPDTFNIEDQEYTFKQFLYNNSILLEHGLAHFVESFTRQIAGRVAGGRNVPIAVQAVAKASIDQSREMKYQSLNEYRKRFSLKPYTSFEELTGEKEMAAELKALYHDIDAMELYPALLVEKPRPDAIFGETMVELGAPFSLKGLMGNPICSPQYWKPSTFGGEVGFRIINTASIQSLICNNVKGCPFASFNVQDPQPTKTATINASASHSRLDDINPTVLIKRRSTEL
Procedure: In order to evaluate the radiotracer binding specificity to COX-2 in healthy rats, a competition study was performed. Two minutes before the intravenous injection of ^11C-VA426, four animals were pretreated with the COX-2 specific inhibitor celecoxib (Sigma-Aldrich, Italy) (10 mg/kg, i.v.) and four animals with vehicle solution alone (100 μl of DMSO, Sigma-Aldrich). All rats were then injected intravenously with 9.25 ± 2.7 MBq of ^11C-VA426 and sacrificed at the time of maximum uptake (30 minutes p.i.), previously assessed in the kinetic study. Central and peripheral samples were dissected as described above and counted, following the same protocol used for the biodistribution kinetic study. Radioactivity concentration in samples was calculated as %ID/g.

[5] = target: T2, COX-2; experiment: Biodistribution kinetic profile in brain inflammation (intrastriatal LPS) rat model; type: in vivo, Sprague Dawley rats; details: rats
Procedure: In order to trigger nigrostriatal inflammation, eighteen SD rats were anesthetized (zoletil, 25 mg/kg, i.p.) and stereotaxically injected into the right striatum with 3 μL (3.33 μg/μl) of lipopolysaccharide (LPS, Sigma-Aldrich, Italy) and in the contralateral hemisphere with saline (negative control) at the following coordinates: A = +0.5, L = ±3.0, and V = –5.0 mm. One day after LPS injection, the first experimental group (n = 9) was injected through the tail vein with 9.25 ± 2.2 MBq of ^11C-VA426, and three rats per time point (10, 30, and 60 minutes) were euthanized under general anaesthesia, with a mixture of 4% isoflurane in air. Central and peripheral samples were dissected as described above and counted, following the protocol described for the biodistribution kinetic study. Twelve days after LPS injection, the second group of animals (n = 9) underwent the same protocol. Radioactivity concentration in samples was calculated as %ID/g.

[6] = target: T1, COX-2; experiment: PET kinetic study in healthy mice; type: in vivo, CD-1 mice
Procedure: Two CD-1 mice were anaesthetized with a mixture of 4% isoflurane in air for the imaging with the YAP-(S)PET system (ISE Srl). Each mouse was placed in a prone position on the PET scanner bed with the abdomen centred in the field of view (FOV). Five minutes before the intravenous injection of ^11C-VA426, one mouse was pretreated with the COX-2 specific inhibitor celecoxib (10 mg/kg, i.v.) in vehicle (100 μl of DMSO, mouse 1) and the other with vehicle alone (mouse 2). Mouse 1 was then injected intravenously with 1.85 MBq of ^11C-VA426 and mouse 2 with 3.7 MBq, and dynamic PET data were acquired for 30 minutes, according to the following schedule: four scans of 2.5 minutes followed by four of 5 minutes. PET data were acquired in list mode, using the full axial acceptance angle of the scanner (3D mode) and then reconstructed with the expectation maximization (EM) algorithm. All images were calibrated with a dedicated phantom, corrected for the radionuclide half-life decay, and quantified as ID/g.

[7] = In vivo stability / radiometabolite analysis in healthy mice (HPLC); details: 10 minutes after injection
Procedure: Mice (n = 3) were injected through the tail vein with 3 ± 0.9 MBq of ^11C-VA426 and sacrificed 10 minutes later, under general anaesthesia. Blood was collected by retro-orbital sampling and processed to obtain plasma, as described above. Radioactive species contained in plasma were extracted by mixing an aliquot (500 μL) of plasma with CH3CN solution (1 : 1 v/v). Acetonitrile extracts were centrifuged and supernatant filtered with a MillexGX® syringe system for HPLC (Gilson Italia Srl, 321 pump, UV/VIS-151) injection. For metabolites analysis in liver, a sample was placed in a tissue homogenizer (Potter-Elvehjem) with 2 mL of saline, mechanically sheared until complete homogenization and subsequently treated as described for plasma. HPLC analyses were performed at room temperature using a C18, 250 × 10 mm, 5 μm column, CH3CN/AcONH4 0.05 M (60/40, v/v) as mobile phase, a flow rate of 4.5 mL/min, and UV = 254 nm. Eluted fractions were collected every 30 seconds, for a total of 14 minutes, and counted with a γ-counter (LKB Compugamma CS 1282).

[8] = set-up: method as in PMID 18598017; details: previous study; cited from earlier work
[9] = tested on: COX-2; set-up: method as in PMID 18598017; details: in vitro; cited from earlier work
[10] = celecoxib 10 mg/kg i.v. vs vehicle

time of maximum radioactivity concentration in all brain regions [1]: 10 minutes after tracer injection
time of maximum uptake in liver [1]: 10 minutes after injection
maximum radioactivity concentration in pons ([1]; 10 minutes after injection): 2.69 ± 0.81 %ID/g
maximum uptake in liver ([1]; 10 minutes after injection): 7.72 ± 2.52 %ID/g
time of highest radioactivity concentration in brain ([2]; i.v.): 10 min p.i.
radioactivity uptake in liver ([2]; i.v., 30 min p.i., n = 3): 0.81 ± 0.28 %ID/g
effect of celecoxib on tracer uptake (%ID/g) in all peripheral regions including plasma [3]: dramatic reduction in tracer uptake
change of uptake in intestine after celecoxib pretreatment [4, 10]: −39%
change of uptake in kidney after celecoxib pretreatment [4, 10]: −36%
change of uptake in liver after celecoxib pretreatment [4, 10]: −65%
difference of uptake between vehicle and celecoxib pretreated rats ([4]; peripheral tissues and central areas): no significant differences
difference of concentration in striatum, lesioned hemisphere vs contralateral PBS-injected control ([5]; one day after LPS, 10, 30 and 60 minutes): no significant differences
tracer uptake in contralateral healthy cortex ([5]; one day after intrastriatal LPS, 60 min p.i.): 0.087 ± 0.012 %ID/g
difference between LPS-treated and healthy contralateral hemisphere, all regions ([5]; twelve days after LPS injection): no differences were found
first radioactive metabolite, fraction of total radioactivity in liver ([7]; healthy mice): 39.8%
parent compound, fraction of total activity in liver ([7]; healthy mice): 34.9%
parent compound, fraction of total activity in plasma ([7]; healthy mice): 47.1%
radioactive metabolite (retention time 3 min), fraction of total radioactivity in plasma ([7]; healthy mice): 45.1%
radioactive metabolite (retention time 5 min), fraction of total radioactivity in plasma ([7]; healthy mice): 6.6%
second radioactive metabolite, fraction of total radioactivity in liver ([7]; healthy mice): 21.6%
third radioactive metabolite (11.5 min of retention time), fraction of total radioactivity in liver ([7]; healthy mice): 3.3%
radioactivity due to radioactive metabolites ([7]; plasma and liver): over 50%
SMILES: Cc1c(CCO[11CH3])cc(-c2ccc(S(C)(=O)=O)cc2)n1-c1ccc(F)cc1 [^11C-VA426]
penetration through the BBB ([2]; brain distribution data): good radioactivity penetration through the BBB
PET radioactivity distribution ([6]; healthy mice, 0 to 30 minutes after injection): accumulates rapidly and primarily in the liver and kidneys
effect of celecoxib pretreatment on PET radioactivity distribution ([6]; healthy mouse, celecoxib 10 mg/kg i.v., 10 and 30 minutes): slightly reduced radioactivity distribution in intestine regions

SMILES: COCCc1cc(-c2ccc(S(C)(=O)=O)cc2)n(-c2ccc(F)cc2)c1C [VA426, 1-(4-fluorophenyl)-3-(2-methoxyethyl)-2-methyl-5-(4-(methylsulfonyl)phenyl)-1H-pyrrole]
toxic effects [8]: without toxic effects
IC50 [9]: 18 nM
Selectivity Index (IC50 COX-1/IC50 COX-2) [9]: > 5555
